Assay [1] relates to INS832/13 cells. Nature of the assay: Insulin secretion from INS832/13 cells, 2-h static incubations. The assay is classed as cell-based. As to conditions: control 1.95. As for the experimental part:
Materials. Cell culture supplies were from Corning (Corning, N.Y.) and Fisherbrand (Canada). VVWL70 was dissolved in dimethylsulfoxide (DMSO) before their use in insulin secretion experiments. Palmitate sodium salt was from Nu-Check Prep (Elysian, Minn.) and bicinchoninic acid protein assay kit from Pierce (Rockford, Ill.) was used. Stock unlabelled palm itate was prepared at 4 mM in 5% defatted BSA as described elsewhere (Roduit et al. Diabetes (2004) 53 pp 1007-1019,).
Cell culture. INS832/13 cells (Hohmeir et al. Diabetes (2000) 49 pp 424-430,) were cultured at 37° C. in a humidified atmosphere containing 5% CO2 in RPMI 1640 with sodium bicarbonate, supplemented with 10% (v/v) fetal calf serum (Wisent), 10 mM HEPES, pH 7.4, 2 mM L-glutamine, 1 mM sodium pyruvate and 50 μM β-mercaptoethanol (complete RPMI). Cells were grown to 80% confluence. Media were changed to RPMI 1640 containing 3 mM glucose supplemented as the complete RPMI 24 h prior to the experiments. Insulin secretion incubations were conducted in Krebs-Ringer bicarbonate buffer containing 10 mM HEPES, pH 7.4 (KRBH).
Insulin secretion measurement. INS832/13 cells were washed in KRBH containing 1 mM glucose and 0.5% defatted BSA (KRBH 1 G/0.5% BSA) and pre-incubated for 45 min in KRBH 1 G/0.5% BSA in presence of pharmacological agents (at indicated concentrations) or vehicle (DMSO). For examining the effect of VVWL70 (an inhibitor of ABHD6), other compounds identified in table 1, and/or orlistat (lipase inhibitor), the compounds were added first in pre-incubation media and then during incubation at 1 to 20 μM concentration (see Table-2) at 2 mM and 10 mM glucose. Insulin secretion from INS832/13 cells was measured from 2-h static incubations in KRBH containing various glucose concentrations, 0.5% defatted BSA and pharmacological agents or vehicle (DMSO), with or without 35 mM KCl or 0.3 mM palm itate, as specified (see Peyot et al., 2009—Adipose Triglyceride Lipase Is Implicated in Fuel- and Non-fuel-stimulated Insulin Secretion—J Biol Chem, 284: pp. 16848-16859). The experiments were done 3 times, with triplicates of each measurement.

Assay [2] deals with CD1 strain mice. Nature of the assay: Oral glucose tolerance test (OGTT) in streptozotocin-induced mildly diabetic mice. The assay is classed as in vivo. As to conditions: 5 mg/kg intraperitoneally daily for three days prior to OGTT; glucose 2 g/kg by gavage; versus vehicle; FIGS. 1 and 2. As for the experimental part:
In this experiment—CD1 strain mice were injected once with streptozotocin (100 mg/kg body wt) to induce mild diabetes. After 4 weeks, the mice were fasted overnight and oral glucose tolerance test (OGTT) was done. Half the animals (5) received ABHD6 inhibitor, VVWL70 for the three days prior to OGTT, daily, intraperitoneally (at 5 mg/kg body weight) and the other half received only vehicle. For OGTT, glucose was given by gavage (2 g/kg body wt), followed by blood collection at indicated time points (on the graph) for the analysis of blood glucose (by glucometer) and plasma insulin (by ELISA).

For assay [3], the target named is T1, ABHD6 (Rattus norvegicus, UniProt Q5XI64).
T1 construct: INS 832/13 β-cell extracts (whole cell) were prepared by sonication; endogenous in cells; host or cells: INS 832/13 β-cells, whole-cell extract
T1 sequence (Q5XI64 1-337): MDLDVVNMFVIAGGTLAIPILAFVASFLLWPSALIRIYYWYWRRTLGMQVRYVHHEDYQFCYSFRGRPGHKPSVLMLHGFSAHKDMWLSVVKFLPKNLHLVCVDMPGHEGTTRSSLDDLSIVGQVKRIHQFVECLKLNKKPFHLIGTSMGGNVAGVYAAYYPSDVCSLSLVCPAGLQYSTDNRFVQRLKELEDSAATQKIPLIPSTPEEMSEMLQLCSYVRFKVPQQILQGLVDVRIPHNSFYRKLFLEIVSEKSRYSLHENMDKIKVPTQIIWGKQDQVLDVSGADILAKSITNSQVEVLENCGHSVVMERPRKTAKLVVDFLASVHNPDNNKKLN
As to the kind of experiment: biochemical. As to conditions: read-out: ABHD6 Inhibition %. As for the experimental part:
(§1) Both ABHD6 and DAGL enzymes were assayed in a single incubation, with separate substrates. Cell extract, 10 μg was incubated in a final volume of 50 μl with 50 μM 1,2-dioleoylglycerol (substrate for DAGL) and 50 μM 1-palmitoylglycerol (substrate for ABHD6). […] Quantification of oleate and palm itate released gave the activities of DAGL and ABHD6, respectively. Incubations contained indicated compounds at 10 μM (or as shown) concentration. VVWL70 was used as a positive control for ABHD6 inhibition and orlistat (ORL) was used as a control for total lipase inhibition.

Assay [4] deals with DAGL. Nature of the assay: Inhibition of DAGL in INS 832/13 β-cell extracts (1,2-dioleoylglycerol hydrolysis, HPLC). The format is biochemical. The note with it: compound at 10 μM; 60 min at 30° C.; 50 μM 1,2-dioleoylglycerol. As for the experimental part: as §1
Where [5] appears, read: compound at 10 μM, 60 min at 30° C., 50 μM 1-palmitoylglycerol.

Counter-ions that a name gives are not always drawn. Like-named read-outs stand apart in the source and are kept apart here.

For the compound `CN(Cc1cccc(-c2ccncc2)c1)C(=O)Oc1ccc(-c2ccc(C(N)=O)cc2)cc1` [Compound 1, reference compound], the figures for the “Insulin secretion (% content)” value in assay [1] (compound at 2 μM), in assay [1] (compound at 5 μM) and in assay [1] (compound at 10 μM) were 3.22 % content, 3.97 % content and 6.03 % content, respectively. Further, the “blood glucose control in OGTT” value in assay [2] is on record as “able to control their blood glucose levels better than the mice which were given vehicle”. For the same compound, the “plasma insulin levels in OGTT” value in assay [2] is “increase in plasma insulin levels”.

For the compound `CNC(=O)c1ccc(-c2ccc(OC(=O)N(C)Cc3cccc(-c4ccncc4)c3)cc2)cc1` [Compound 2, 4′-(Methylcarbamoyl)biphenyl-4-yl N-methyl-N-(3-(pyridin-4-yl)benzyl)carbamate], the entries for the “Insulin secretion (% content)” value in assay [1] (compound at 2 μM), in assay [1] (compound at 5 μM) and in assay [1] (compound at 10 μM) were 2.25 % content, 3.70 % content and 6.08 % content, respectively. In addition, in assay [3], the inhibition at 10 µM turned out to be 98%. In assay [4], the “DAGL Inhibition %” value was 0%.

As for `NC(=O)c1ccc(-c2ccc(OC(=O)N(Cc3cccc(-c4ccncc4)c3)c3ccccc3)cc2)cc1` [Compound 3, trifluoroacetate salt], the “Insulin secretion (% content)” value in assay [1] (compound at 2 μM) came to 2.00 % content; in assay [1] (compound at 5 μM) it was 2.10 % content; in assay [1] (compound at 10 μM), 3.05 % content. In addition, the inhibition at 10 µM in assay [3] (setting [5]) came to 90%. In assay [4], the “DAGL Inhibition %” value is listed as 0%.

As to `CNC(=O)c1ccc(-c2ccc(OC(=O)N(C)Cc3cccc(-c4ccccc4)c3)cc2)cc1` [Compound 4, 4′-(Methylcarbamoyl)biphenyl-4-yl N-methyl-N-(3-phenylbenzyl)carbamate], the “Insulin secretion (% content)” value in assay [1] (compound at 2 μM) was 3.05 % content; in assay [1] (compound at 5 μM), 3.65 % content; in assay [1] (compound at 10 μM), 3.82 % content. Also, the inhibition at 10 µM in assay [3] was 70%. Also, in assay [4], the “DAGL Inhibition %” value is on record as 0%.

For `CN(Cc1cccc(-c2ccncc2)c1)C(=O)Oc1ccc(-c2ccc(C(=O)NC3CC3)cc2)cc1` [Compound 5, 4′-(Cyclopropylcarbamoyl)biphenyl-4-yl N-methyl-N-(3-(pyridin-4-yl)benzyl)carbamate], the “Insulin secretion (% content)” value in assay [1] (compound at 2 μM) turned out to be 2.01 % content; in assay [1] (compound at 5 μM), 2.05 % content; in assay [1] (compound at 10 μM), 3.56 % content. Also, the inhibition at 10 µM in assay [3] was determined as 60%. In assay [4], the “DAGL Inhibition %” value turned out to be 10%.

For the compound `CNC(=O)c1ccc(-c2ccc(OC(=O)N(Cc3cccc(-c4ccncc4)c3)C(C)C)cc2)cc1` [Compound 6, 4′-(Methylcarbamoyl)biphenyl-4-yl N-i-propyl-N-(3-(pyridin-4-yl)benzyl)carbamate], the figures for the “Insulin secretion (% content)” value in assay [1] (compound at 2 μM), in assay [1] (compound at 5 μM) and in assay [1] (compound at 10 μM) were 3.10 % content, 3.98 % content and 5.88 % content, respectively. The inhibition at 10 µM in assay [3] (setting [5]) turned out to be 95%. Besides, the “DAGL Inhibition %” value in assay [4] turned out to be 0%.

(Values after patent US20160264527A1 (priority 2011, published 2016).)
